In experiment [1] the test system is zebrafish embryos. The following applies: cited from earlier work.
For experiment [2], the target named is T1, MT2 than for MT1 subtypes of melatonin receptors (Homo sapiens, UniProt P49286).
T1 sequence (P49286 1-362): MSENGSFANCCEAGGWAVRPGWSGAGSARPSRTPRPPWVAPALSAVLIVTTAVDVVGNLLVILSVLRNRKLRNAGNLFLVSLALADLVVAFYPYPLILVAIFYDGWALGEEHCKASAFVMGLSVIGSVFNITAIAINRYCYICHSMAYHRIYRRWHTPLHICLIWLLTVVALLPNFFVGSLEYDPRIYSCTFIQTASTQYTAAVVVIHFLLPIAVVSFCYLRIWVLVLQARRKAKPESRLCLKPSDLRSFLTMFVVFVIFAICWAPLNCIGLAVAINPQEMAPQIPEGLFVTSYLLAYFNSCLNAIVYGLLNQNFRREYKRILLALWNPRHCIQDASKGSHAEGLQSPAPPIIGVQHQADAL
The following applies: MT2 versus MT1 selectivity; cited from earlier work.

In experiment [3] the test system is Zebrafish (D. rerio). Description: active-avoidance conditioning in a shuttle box: learning (trials to criteria) and 24 h retention score. Format: in vivo. Here is the method:
Zebrafish (D. rerio) were bred, raised and maintained by the experimenter at the University of Houston Animals Facility. Adult zebrafish are maintained in 2-liter modular aquaria (Marine Biotech) with continuous water exchange at 26-28° C. under 14:10 hours light:dark cycle. Eggs and larvae are maintained in beakers with daily water changes, under the same light:dark cycle and similar temperatures. Larval fish are fed with filtered paramecium. All animals, juvenile (>15 days) and adults are fed three times a day with live brine shrimp or flake. The *AB strain was originally obtained from the University of Oregon. All protocols were approved by the University of Houston Institutional Animal Care Use Committee. Zebrafish are trained on an active-avoidance conditioning paradigm using a modified shuttle box. Zebrafish must cross a hurdle to avoid electric shocks (3V; unconditioned stimulus) administered via electrodes 10 seconds after the onset of the conditioned stimulus which was a dim red light. Dim red lights are placed at the extremity of each compartment of the shuttle box. The light signal was kept on during each cycle lasting for 20 seconds in one compartment; subsequently, the conditioned and unconditioned stimuli changed to the other side of the shuttle box. Zebrafish must learn to escape the dark compartment and maintain in the compartment having the light stimulus on for the remaining trial period. Animals that respond correctly to the light signals in eight out of ten consecutive trials during the training period are designated learners. Training was terminated once Zebrafish achieve the learning criteria (i.e. swimming the compartment where the stimulus light was on and remain there until the light was switched off). […] Animals are tested 24 hours later under identical conditions to test for retention of the learned task. To quantitatively evaluate the ability of each learner to recall the active avoidance conditioning paradigm, a retention score was calculated using the algorithm of Piront and Schmidt [formula] The number of trials required to reach the learning criteria during the test session was subtracted from number of trials required to reach the learning criteria in the training session, divided by the number of trials in the test plus training sessions. Retention scores range from 0 to 1.0. […] Melatonin Blocks Long-Term Memory Formation During the Subjective Day This melatonin effect was tested by taking animals originally under 14:10 hours light:dark cycles and exposing them to constant darkness for 4 days. On the 3rd day of constant darkness and one hour prior to training at CT7 (corresponds to 4 pm) animals were bathed in increasing concentrations of melatonin (1 μM, 10 μM, 50 μM and 100 μM). Animals were then trained at CT8 for active avoidance conditioning and tested 24 hours later on the 4th day of constant darkness at CT8 for long-term memory formation. […] To test whether melatonin blocks long-term memory formation via melatonin receptor mediated signaling pathway, the following experiments were performed. Animals in their original 14:10 hours light:dark cycles were set under free running conditions of constant darkness and temperature (25° C.) for 4 days. […] Treatments comprising of melatonin and either of its antagonists (luzindole or K-185) do improve the retention score, going from 0.1 with melatonin alone to about 0.4 in the presence of a mixture of melatonin and luzindole and to about 0.3 in the presence of a mixture of melatonin and K-185. […] This means that the inhibitory action of melatonin was mediated via a melatonin receptor-signaling pathway. […] This effect was tested by blocking night time melatonin receptor mediated signaling pathways with increased concentrations of melatonin receptor antagonist, such as luzindole. Animals in 14:10 hours light:dark cycles were exposed to constant darkness and temperature (25° C.) for 4 days. […]

Experiment [4] deals with C3H/HeN mice. The following applies: more pronounced effect at midnight than midday; cited from earlier work.

Structures are written as SMILES. “Also recorded” adds a separate entry of the source.

Turning to `CCCC(=O)NCCc1c2n(c3ccc(OC)cc13)CCCc1ccccc1-2` [K-185, N-butanoyl-2-(5,6,7-trihydro-11-methoxy-benzo[3,4]cyclohept[2,1-a]indol-13-yl) ethanamine], the “antagonism of the effect of melatonin on zebrafish development” value in experiment [1] was “blocking the effect of melatonin on zebrafish development”. Also, in experiment [2], the “higher affinity for MT2 than for MT1” value is more than 140 fold.

Turning to `CC(=O)NCCc1c(Cc2ccccc2)[nH]c2ccccc12` [luzindole, N-Acetyl-2-benzyltryptamine], the retention score result in experiment [3] (0.5 μM luzindole, 1 h at CT15, trained CT16, tested 24 h later (subjective night), FIG. 4b) is “less than 0.1”; in experiment [3] (1 μM luzindole, 1 h at CT15, trained CT16, tested 24 h later (subjective night), FIG. 4b) it was 0.25. For the same compound, the “number of trials to reach learning criteria” value in experiment [3] (luzindole at increasing concentration, 1 h at CT15, trained CT16 (subjective night), constant darkness, FIG. 4a) is “No significant difference; also recorded: remains the same”. Besides, in experiment [4], the “duration of immobility during swimming” value was “decreases the duration of immobility during swimming”.

`COc1ccc2[nH]cc(CCNC(C)=O)c2c1` [melatonin, 5-OCH3 N-acetyltryptamine]: the retention score entry in experiment [3] (100 μM melatonin, 1 h at CT7, trained CT8, tested 24 h later (subjective day), FIG. 2b) was “significantly reduced”; in experiment [3] (melatonin concentration over 50 μM, 1 h at CT7, tested 24 h after training at CT8 (subjective day)) it was “around 0.1”. Moreover, the “long-term memory formation (retention score)” value in experiment [3] (low concentrations of melatonin, 1 h at CT7, tested 24 h after training at CT8) was “do not significantly block long-term memory formation”.

Values taken from patent US8372876B2, “Method for improving memory in mammals” (The University of Houston System, priority 2007, dated 2013).
